Experimental data from US20090139433A1, “DENTAL MATERIALS BASED ON ALKYLENEDIAMINE-N,N,N',N'- TETRAACETIC ACID- (METH)ACRYLAMIDES” (Ivoclar Vivadent AG, priority 2007, published 2009).

Experiment: Examination of the resistance to hydrolysis by 1H-NMR on storage
Assay type: physicochemical
Conditions: 20% solution in DMSO-d6/D2O (1:1); for hydrolysis products in the 1H-NMR spectrum at the start of the investigation: 37° C., at the start / immediately
Method: To examine the hydrolysis stabilities of the monomers MAM-EDTA and MA-EDTA, respectively, in each case a 20% solution in DMSO-d6/D2O (1:1) was stored at 37° C. At certain intervals, the ^1H-NMR spectra of these solutions were recorded. […] After 119 days' storage at 37° C., approx. 50% of the methacrylic ester groups had been hydrolyzed. In contrast, the monomer MAM-EDTA according to the invention was clearly more hydrolysis-resistant.

| Substance | hydrolysis products in the 1H-NMR spectrum at the start of the investigation | additional double-bond signals in the 1H-NMR spectrum (after 119 days at 37° C.) | methacrylic ester groups hydrolyzed (after 119 days' storage at 37° C., 1H-NMR) |
| --- | --- | --- | --- |
| EDTA-di(5-methacrylamidopentyl)ester [MAM-EDTA] | no hydrolysis products could be recognized | no additional double-bond signals could be detected |  |
| EDTA-di(2-methacryloyloxyethyl)ester [MA-EDTA] | a second double-bond signal could be observed immediately |  | approx. 50% |
